Patent US20250212873A1, “VOLATILE HDAC INHIBITORS FOR THERAPEUTIC AND PLANT APPLICATIONS” (The Regents of the University of California, priority 2022, published 2025)
“Also recorded” adds a separate entry of the source.

Key:
[1] = test system: A. thaliana plants (Col-0); assay: Flowering assay; assay type: in vivo, Arabidopsis thaliana; conditions: vapors from 0.1% solution
Source text: Dramatic effects of VOCs have been seen in the seedling stage. The effects on with flowering timing were observed, since the process involves numerous changes in gene expression and therefore potentially susceptible to HDAC inhibitory volatiles. Mutants in HDACs like HDA5 show delayed flowering due to upregulation of flowering repressor genes like FLC and MAF1 (M. Luo et al., Plant J 82, 925-936 (2015)). Conversely, mutants in HDA9lead to early flowering due to increased expression of FLOWERING LOCUS T (FT) and AGAMOUS-LIKE 19 (AGL19) (M. J. Kang, et al., New Phytol 206, 281-294 (2015)). We placed 3 weeks old A. thaliana plants in the glass chambers and exposed them to the vapors of two of the VOCs, diacetyl and α-angelica lactone volatilizing from 0.1% solutions in the glass chamber.
Twenty-seven day old A. thaliana plants (Col-0), that had been transplanted at day 7 to soil, were placed in 10-gallon glass aquarium as chamber along with a petridish containing 2 ml of chemical dissolved in PO or PO alone were placed at the other side of the container. Plants were exposed to odors until all plants began to flower, with odor cartridges being replaced daily. Signs of flower buds opening were counted as plant flowering. One-way analysis of Variance (ANOVA) between groups was performed for plant exposure quantitative data using Graph Pad Prism 9.

[2] = test system: Arabidopsis thaliana seedlings; assay: Odor Exposure assay, Arabidopsis thaliana seedlings (root and leaf development); assay type: in vivo
Description: The Odor Exposure assay consists of controlled exposure of volatile odor compounds to model plant Arabidopsis within enclosed aquariums and similar growth conditions (23° C. with a 12-hour light/dark cycle). For Arabidopsis, seedlings were aligned on agar plates for growth after a 4-day cold treatment process. The agar plates with seedlings were then placed in enclosed aquariums with moist paper towels soaked in 10 ml of DI water for humidity. The plates were placed along the wall, approximately 12 cm from odor dispensers which resided in the center of the glass tank.
The test compound odor dispensers, consisting of (60×15 mm) polystyrene Petri dishes containing 2 ml of 1% v/v in PO, are replaced at the 3.5, 5, and 6-day time mark during the 7-day experiment. Root growth is marked during each time mark and the plates were imaged. The plants are to be collected after the 7-day exposure, photographed, and the leaves/roots carefully dissected separated, flash frozen in liquid nitrogen, and preserved for future sequencing. Root growth is measured using ImageJ.
In order to study the physiological effects of long-term exposure to microbial volatiles the model system Arabidopsis was exposed for […] to diacetyl, a volatile chemical emitted by fermentation by yeast or microbial degradation in the soil associated with roots (R. J. Morcillo et al., EMBO J 39, e102602 (2020); M. A. Farag, et al., Phytochemistry 67, 2262-2268 (2006); and C. M. Ryu et al., P Natl Acad Sci USA 100, 4927-4932 (2003). The Odor Exposure assay consisted of controlled exposure of volatile HDAC inhibiting compounds to model plant Arabidopsis within enclosed aquariums and similar growth conditions. The test compound odor cartridges, consisting of 60×15 mm polystyrene Petri dishes containing 2 ml of indicated concentration in Paraffin Oil, were replaced at the 3.5, 5, and 6-day time mark during the 7-day experiment (FIG. 1A, left). In separate experiments the weight loss from the odor cartridges over time was measured and used it to calculate the concentration of diacetyl in the glass chambers in parts per million (FIG. 1A, right).
In order to directly evaluate whether exposure to vapors of the four HDAC-inhibitory VOCs affect root development, we performed a set of experiments using A. thaliana seedlings as before. Solutions for each of the four chemicals on a small petri dish were placed away from the seedlings growing in agar plate and enclosed in glass tank. The Root tips were marked at specified days post treatment start and photographs analyzed. The plants were collected after the 7-day exposure, photographed, and the roots were separated. Detailed measurements were made from the photos using ImageJ and the root length and numbers of lateral roots quantified at day 3.5 and day 7 after start if the treatment (FIG. 1B).
The Odor Exposure assay consists of controlled exposure of volatile odor compounds to model plant Arabidopsis within enclosed aquariums and similar growth conditions (23° C. with a 12-hour light/dark cycle). The test compound odor cartridges, consisting of (60×15 mm) polystyrene Petri dishes containing 2 ml of 1% v/v in paraffin oil (PO), were replaced at the 3.5, 5, and 6-day time mark during the 7-day experiment. Root growth was marked during each time point and the plates were imaged. Numbers of true leaves were also counted. The plants are to be collected after the 7-day exposure, photographed, and the leaves/roots carefully dissected separated, flash frozen in liquid nitrogen, and preserved for future sequencing. Root growth is measured using ImageJ.

mouse brain = assay: Brain RNA-seq of mice exposed to diacetyl vapors; assay type: in vivo; conditions: 5 days
Source text: HDAC inhibitors are an important class of drugs being tested for a number of different conditions including neurodegenerative diseases and brain cancers. A major design challenge for such drugs is the ability to cross the blood-brain barrier. An interesting possibility that arises due to the volatility and small size of odorants is that they could diffuse through the intranasal route to the brain directly. To test whether cells in the brain respond to diacetyl vapors by altering gene expression RNA-seq experiments were carried out on mice exposed only to aroma of diacetyl for 5 days. Littermate controls were exposed in a similar manner to the solvent (PO) headspace.
The DEGs from the diacetyl-exposed mouse brain transcriptome for several of these key genes were evaluated.

[3] = test system: SK-MEL-5 Cancer cell line; assay: Cancer cell viability assay, SK-MEL-5; assay type: cell-based; conditions: triplicates
Description: Cells were maintained in a 37° C. incubator with 5% CO2 throughout the experiment. Compound stocks were dissolved in 10% DMSO, but final concentrations were made fresh in complete media as needed. 10% DMSO solvent was used as control in complete media. Cells were seeded onto 12-well plates and allowed 12-24 hours until treatment began to allow cells to adhere to wells. This was followed by minimum 5-day treatment of compounds, changing the media with treatment every 48 hours. Cell lines A549, PC3, and SK-MEL-5 were seeded at 8000 cells/well which would provide 80-100% confluency after 6-day growth. SH-SY5Y was seeded at 8000 cells/well then 16,000 cells/well due to slower growth and given at least 10 days for sufficient growth. After allotted growth times, cell counts were performed via Countess™ automated cell counter. All assays were completed with a minimum of triplicate replicates for all conditions and analyzed through GraphPad Prism One-way ANOVA for significance.

[4] = 7-day exposure, headspace of 1% v/v in Paraffin oil
[5] = 0.1% headspace, |log2 fold-change|>1, FDR<0.05
[6] = 1% headspace, |log2 fold-change|>1, FDR<0.01

CC(=O)C(C)=O [2,3-butanedione]
delay in flowering [1]: 11 days | root growth ([2]; 3.5-day exposure, headspace of 1% v/v in Paraffin oil): significant root growth inhibition | lateral root growth (number of lateral roots) [2, 4]: increase; also recorded: notable lateral root promotion; also recorded: significant phenotypic changes | leaf development (number of large / true leaves) [2, 4]: changes in the number of true leaf development/growth; also recorded: significant phenotypic changes | lateral root growth (number of lateral roots) ([2]; 7-day exposure, headspace of 1% v/v in Paraffin oil, listed as 2,3-butandione): promoted lateral root growth | leaf development (number of large / true leaves) ([2]; 7-day exposure, headspace of 1% v/v in Paraffin oil, listed as diacetyl): significant decreases | root growth (primary root length) ([2]; 7-day exposure, headspace of solution in Paraffin oil): lack of growth | lateral roots, number relative to control ([2]; highest dose, 7-day exposure): ~3 times | down regulated genes in mouse brain (mouse brain; [5]): 32 genes | up-regulated genes in mouse brain (mouse brain; [5]): 49 genes | down regulated genes in mouse brain (mouse brain; [6]): 1031 genes | up-regulated genes in mouse brain (mouse brain; [6]): 748 genes | Alk expression in mouse brain (mouse brain; exposed mice of FIG. 22B (1%)): significantly downregulated | ERCC6L2 expression in mouse brain (mouse brain; exposed mice of FIG. 22B (1%)): significantly downregulated | MycN expression in mouse brain (mouse brain; exposed mice of FIG. 22B (1%)): significantly downregulated | NCAN expression in mouse brain (mouse brain; exposed mice of FIG. 22B (1%)): significantly downregulated | STK33 expression in mouse brain (mouse brain; exposed mice of FIG. 22B (1%)): significantly downregulated | gene expression in the mouse brain (RNA-seq), in words (mouse brain; inhaled vapors, 0.1% or 1% solution headspace): changes in expression of a number of genes, in a dose dependent manner | changes in proliferation, SK-MEL-5 ([3]; 33 uM): No significant changes in proliferations | changes in proliferation, SK-MEL-5 ([3]; 100 uM): No significant changes in proliferations
